According to patent publication US8541449B2, “Substituted isoquinolines and isoquinolinones as Rho kinase inhibitors” (Sanofi, priority 2008, dated 2013):

What was measured:
Assay type in all cases: biochemical
recombinant human PKA = biological target: T1, recombinant human PKA (Homo sapiens, UniProt P17612); experiment: Determination of Protein Kinase A inhibition (Caliper peptide phosphorylation assay); details: recombinant human PKA versus ROCK II
T1 construct: Active recombinant human PKA (residues 1-351, N-terminal His-tag); His-tag (N); purchased Invitrogen, Karlsruhe, Germany
In short: (§1)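 Full-length His-tagged PKG1-beta (150 ng/ml working) or His-tagged PKA residues 1-351 (30 ng/ml working) was mixed with compound in pH 7.4 Tris/MgCl2/DTT buffer. Fluorescein-peptide substrate and ATP (3 μM and 120 μM working) were then added for 60 min at 32 °C before an EDTA stop. Phosphopeptide was separated electrophoretically on a Caliper instrument to derive IC50.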

[1] = biological target: T2, recombinant human PKG1-beta (Homo sapiens, UniProt Q13976); experiment: Determination of Protein Kinase G inhibition (Caliper peptide phosphorylation assay); details: recombinant human PKG1-beta versus ROCK II
T2 construct: Active recombinant human PKG1-beta (full-length, with N-terminal His-tag); His-tag (N); purchased Millipore GmbH, Schwalbach, Germany
T2 sequence (Q13976 1-686 isoform Q13976-2): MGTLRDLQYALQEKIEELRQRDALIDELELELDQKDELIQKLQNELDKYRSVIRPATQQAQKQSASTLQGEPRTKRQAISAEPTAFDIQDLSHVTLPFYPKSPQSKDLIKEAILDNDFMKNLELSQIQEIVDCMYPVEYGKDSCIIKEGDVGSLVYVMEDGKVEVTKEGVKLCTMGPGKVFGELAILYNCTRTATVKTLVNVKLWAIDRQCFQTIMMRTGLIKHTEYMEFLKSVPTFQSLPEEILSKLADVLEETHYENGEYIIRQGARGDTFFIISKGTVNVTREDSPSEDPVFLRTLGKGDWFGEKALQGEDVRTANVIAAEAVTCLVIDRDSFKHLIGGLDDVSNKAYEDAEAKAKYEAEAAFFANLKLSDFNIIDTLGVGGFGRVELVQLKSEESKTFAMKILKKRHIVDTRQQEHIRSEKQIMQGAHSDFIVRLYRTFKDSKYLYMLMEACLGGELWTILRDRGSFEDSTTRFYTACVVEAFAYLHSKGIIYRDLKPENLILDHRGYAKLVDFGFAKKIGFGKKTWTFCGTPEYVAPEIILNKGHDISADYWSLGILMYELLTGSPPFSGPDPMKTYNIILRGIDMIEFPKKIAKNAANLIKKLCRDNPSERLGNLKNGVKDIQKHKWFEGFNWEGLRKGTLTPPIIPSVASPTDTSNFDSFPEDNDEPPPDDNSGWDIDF
In short: as §1

[2] = biological target: T3, human recombinant ROCK II (Homo sapiens, UniProt O75116); experiment: Determination of Rho kinase inhibition (Caliper peptide phosphorylation assay); details: 60 min at 32° C., negative decadal logarithm of the IC50
T3 construct: N-terminal His6-tagged recombinant human ROCK-II residues 11-552; His6 (N); purchased Millipore GmbH, Schwalbach, Germany
In short: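 His6-tagged human ROCK II (residues 11-552) phosphorylated a fluorescein-labelled peptide for 60 min at 32° C in Tris-HCl pH 7.4 with MgCl2, DTT and BSA, using 3 μM peptide and 120 μM ATP as diluted stocks. EDTA-stopped; phosphopeptide separated and detected by Caliper mobility shift; IC50 determined.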

T3 sequence (O75116 11-552): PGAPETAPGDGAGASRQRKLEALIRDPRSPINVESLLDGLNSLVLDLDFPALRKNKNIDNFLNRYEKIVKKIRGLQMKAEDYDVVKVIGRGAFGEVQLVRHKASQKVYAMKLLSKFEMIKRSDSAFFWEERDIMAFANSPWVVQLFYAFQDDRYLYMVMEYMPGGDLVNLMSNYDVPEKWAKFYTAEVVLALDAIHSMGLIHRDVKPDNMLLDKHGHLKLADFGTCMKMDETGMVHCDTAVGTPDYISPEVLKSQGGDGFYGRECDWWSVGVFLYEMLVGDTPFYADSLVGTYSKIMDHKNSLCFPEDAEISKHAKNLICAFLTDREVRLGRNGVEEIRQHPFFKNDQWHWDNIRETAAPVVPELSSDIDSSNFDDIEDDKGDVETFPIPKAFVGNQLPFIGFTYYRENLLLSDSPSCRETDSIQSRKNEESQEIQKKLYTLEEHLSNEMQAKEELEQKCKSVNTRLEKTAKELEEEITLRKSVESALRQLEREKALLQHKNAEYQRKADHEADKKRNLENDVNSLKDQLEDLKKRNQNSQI

SMILES | Selectivity against PKA (recombinant human PKA) | Selectivity against PKG [1] | pIC50 [2]
CCC(N)[C@]1(c2ccccc2)CC[C@H](Oc2cc3cc[nH]c(=O)c3cc2C)CC1 (stereo partly drawn) [Example 11, cis-6-[4-(1-Amino-propyl)-4-phenyl-cyclohexyloxy]-7-methyl-2H-iso quinolin-1-one] | >300 | >10 | ++++++ (7.0≦pIC50<8.0)
CCCC(N)[C@]1(c2ccc(F)cc2)CC[C@@H](Oc2cc3cc[nH]c(=O)c3cc2Cl)CC1 (stereo partly drawn) [Example 12, trans-6-[4-(1-Amino-butyl)-4-(4-fluoro-phenyl)-cyclohexyloxy]-7-chloro-2H-isoquinolin-1-one] | >100 | >10 | +++++ (6.0≦pIC50<7.0)
CC(N)[C@]1(c2ccc(F)cc2)CC[C@@H](Oc2cc3cc[nH]c(=O)c3cc2Cl)CC1 (stereo partly drawn) [Example 13, trans-6-[4-(1-Amino-ethyl)-4-(4-fluoro-phenyl)-cyclohexyloxy]-7-chloro-2H-isoquinolin-1-one] | >300 | >100 | ++++++ (7.0≦pIC50<8.0)
CCCC(N)[C@]1(c2ccccc2)CC[C@@H](Oc2cc3cc[nH]c(=O)c3cc2Cl)CC1 (stereo partly drawn) [Example 14, trans-6-[4-(1-Amino-butyl)-4-phenyl-cyclohexyloxy]-7-chloro-2H-isoquinolin-1-one] | >100 | >100 | +++++ (6.0≦pIC50<7.0)
CC(N)[C@]1(c2ccc(F)cc2)CC[C@H](Oc2cc3cc[nH]c(=O)c3cc2Cl)CC1 (stereo partly drawn) [Example 15, cis-6-[4-(1-Amino-ethyl)-4-(4-fluoro-phenyl)-cyclo-hexyloxy]-7-chloro-2H-iso quinolin-1-one] | >1000 | >300 | +++++++ (8.0≦pIC50)
CCC(N)[C@]1(c2cccc(Br)c2)CC[C@@H](Oc2cc3cc[nH]c(=O)c3cc2Cl)CC1 (stereo partly drawn) [Example 16, trans-6-[4-(1-Amino-propyl)-4-(3-bromo-phenyl)-cyclohexyloxy]-7-chloro-2H-iso quinolin-1-one] | >300 | >100 | ++++++ (7.0≦pIC50<8.0)
CCC(N)[C@]1(c2cccc(OC)c2)CC[C@@H](Oc2cc3cc[nH]c(=O)c3cc2Cl)CC1 (stereo partly drawn) [Example 17, trans-6-[4-(1-Amino-propyl)-4-(3-methoxy-phenyl)-cyclohexyloxy]-7-chloro-2H-iso quinolin-1-one] | >300 | >100 | ++++++ (7.0≦pIC50<8.0)
CC(C)C(N)[C@]1(c2ccccc2)CC[C@@H](Oc2cc3cc[nH]c(=O)c3cc2Cl)CC1 (stereo partly drawn) [Example 19, trans-6-[4-(1-Amino-2-methyl-propyl)-4-phenyl-cyclohexyloxy]-7-chloro-2H-iso quinolin-1-one] | >100 | >100 | +++++ (6.0≦pIC50<7.0)
CC(C)CC(N)[C@]1(c2ccccc2)CC[C@@H](Oc2cc3cc[nH]c(=O)c3cc2Cl)CC1 (stereo partly drawn) [Example 20, trans-6-[4-(1-Amino-3-methyl-butyl)-4-phenyl-cyclohexyloxy]-7-chloro-2H-iso quinolin-1-one] | >100 | >100 | ++++++ (7.0≦pIC50<8.0)
CC(C)(N)[C@]1(c2ccc(F)cc2)CC[C@@H](Oc2cc3cc[nH]c(=O)c3cc2Cl)CC1 [Example 22, trans-6-[4-(1-Amino-1-methyl-ethyl)-4-(4-fluoro-phenyl)-cyclohexyloxy]-7-chloro-2H-iso quinolin-1-one] | >300 | >100 | ++++++ (7.0≦pIC50<8.0)
CC(N)[C@]1(c2ccccc2)CC[C@H](Oc2cc3cc[nH]c(=O)c3cc2Cl)CC1 (stereo partly drawn) [Example 24, cis-6-[4-(1-Amino-ethyl)-4-phenyl-cyclohexyloxy]-7-chloro-2H-iso quinolin-1-one] | >1000 | >300 | +++++++ (8.0≦pIC50)
CC(C)(N)[C@]1(c2ccccc2)CC[C@H](Oc2cc3cc[nH]c(=O)c3cc2Cl)CC1 [Example 25, cis-6-[4-(1-Amino-1-methyl-ethyl)-4-phenyl-cyclo-hexyloxy]-7-chloro-2H-iso quinolin-1-one] | >1000 | >100 | +++++++ (8.0≦pIC50)
NC(C1CC1)[C@]1(c2ccccc2)CC[C@H](Oc2cc3cc[nH]c(=O)c3cc2Cl)CC1 (stereo partly drawn) [Example 26] | >1000 | >300 | +++++++ (8.0≦pIC50)
CCC(N)[C@]1(c2ccc(C(C)C)cc2)CC[C@H](Oc2cc3cc[nH]c(=O)c3cc2Cl)CC1 (stereo partly drawn) [Example 27, cis-6-[4-(1-Amino-propyl)-4-(4-isopropyl-phenyl)-cyclohexyloxy]-7-chloro-2H-iso quinolin-1-one] | >100 | >10 | ++++++ (7.0≦pIC50<8.0)
CCC(N)[C@]1(c2cccc(OC)c2)CC[C@H](Oc2cc3cc[nH]c(=O)c3cc2Cl)CC1 (stereo partly drawn) [Example 28] | >1000 | >1000 | +++++++ (8.0≦pIC50)
CCC(N)[C@]1(c2ccc(F)cc2)CC[C@@H](Oc2cc3cc[nH]c(=O)c3cc2Cl)CC1 (stereo partly drawn) [Example 31, trans-6-[4-(1-amino-propyl)-4-(4-fluoro-phenyl)-cyclohexyloxy]-7-chloro-2H-iso quinolin-1-one] | >300 | >100 | ++++++ (7.0≦pIC50<8.0)
CCC(N)[C@]1(c2ccccc2)CC[C@@H](Oc2cc3cc[nH]c(=O)c3cc2Cl)CC1 (stereo partly drawn) [Example 32] | >1000 | >300 | ++++++ (7.0≦pIC50<8.0)
CCC(N)[C@]1(c2ccccn2)CC[C@H](Oc2cc3cc[nH]c(=O)c3cc2Cl)CC1 (stereo partly drawn) [Example 55, cis-6-[4-(1-Amino-propyl)-4-pyridin-2-yl-cyclohexyloxy]-7-chloro-2H-isoquinolin-1-one] | >1000 | >300 | +++++++ (8.0≦pIC50)
CCC(N)[C@]1(c2ccc(F)cc2F)CC[C@H](Oc2cc3cc[nH]c(=O)c3cc2Cl)CC1 (stereo partly drawn) [Example 56, cis-6-[4-(1-Amino-propyl)-4-(2,4-difluoro-phenyl)-cyclohexyloxy]-7-chloro-2H-isoquinolin-1-one] | >1000 | >300 | +++++++ (8.0≦pIC50)
CCC(N)[C@]1(c2ccc(F)cc2C)CC[C@H](Oc2cc3cc[nH]c(=O)c3cc2Cl)CC1 (stereo partly drawn) [Example 57, cis-6-[4-(1-Amino-propyl)-4-(4-fluoro-2-methyl-phenyl)cyclohexyloxy]-7-chloro-2H-isoquinolin-1-one] | >1000 | >300 | +++++++ (8.0≦pIC50)
CCC(N)[C@]1(c2cc(F)cc(F)c2)CC[C@H](Oc2cc3cc[nH]c(=O)c3cc2Cl)CC1 (stereo partly drawn) [Example 58, cis-6-[4-(1-Amino-propyl)-4-(3,5-difluoro-phenyl)-cyclohexyloxy]-7-chloro-2H-isoquinolin-1-one] | >1000 | >100 | +++++++ (8.0≦pIC50)
